Assay results: PubChem BioAssay (NCI)
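Growth conditions: 96-well plates. Treatment: test compound, 48 hours, 5 concentrations. Analysis: linear interpolation between bracketing concentrations; unreached endpoints set to highest concentration. TGI denotes the concentration required for complete inhibition of growth.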

Assays:
Assay in all cases: NCI tumour cell line growth inhibition, 48 h
SW-620 colon = test system: SW-620 colon
HL-60(TB) leukemia = test system: HL-60(TB) leukemia
SK-MEL-28 melanoma = test system: SK-MEL-28 melanoma
CCRF-CEM leukemia = test system: CCRF-CEM leukemia
A549 NSCLC = test system: A549 NSCLC
HOP-62 NSCLC = test system: HOP-62 NSCLC
HCT-15 colon = test system: HCT-15 colon
MDA-N = test system: MDA-N
CAKI-1 renal = test system: CAKI-1 renal
HOP-92 NSCLC = test system: HOP-92 NSCLC
SK-OV-3 ovarian = test system: SK-OV-3 ovarian
OVCAR-4 ovarian = test system: OVCAR-4 ovarian
SR leukemia = test system: SR leukemia
RXF 393 renal = test system: RXF 393 renal
U251 CNS = test system: U251 CNS
NCI-H23 lung = test system: NCI-H23 lung
DU-145 prostate = test system: DU-145 prostate
MCF7 breast = test system: MCF7 breast
T-47D breast = test system: T-47D breast
M14 melanoma = test system: M14 melanoma
SNB-75 CNS = test system: SNB-75 CNS
SF-268 CNS = test system: SF-268 CNS
RPMI-8226 leukemia = test system: RPMI-8226 leukemia
PC-3 prostate = test system: PC-3 prostate
OVCAR-5 ovarian = test system: OVCAR-5 ovarian
UACC-257 melanoma = test system: UACC-257 melanoma
HCT-116 colon = test system: HCT-116 colon
IGROV1 ovarian = test system: IGROV1 ovarian
MDA-MB-231 breast = test system: MDA-MB-231 breast
KM12 colon = test system: KM12 colon
NCI-H226 lung = test system: NCI-H226 lung
OVCAR-8 ovarian = test system: OVCAR-8 ovarian
TK-10 renal = test system: TK-10 renal
ACHN renal = test system: ACHN renal
A498 renal = test system: A498 renal
SF-295 CNS = test system: SF-295 CNS
SK-MEL-5 melanoma = test system: SK-MEL-5 melanoma
NCI/ADR-RES ovarian = test system: NCI/ADR-RES ovarian
HT29 colon = test system: HT29 colon
OVCAR-3 ovarian = test system: OVCAR-3 ovarian
NCI-H460 lung = test system: NCI-H460 lung
SF-539 CNS = test system: SF-539 CNS
MDA-MB-435 = test system: MDA-MB-435
MOLT-4 leukemia = test system: MOLT-4 leukemia
COLO 205 colon = test system: COLO 205 colon
EKVX NSCLC = test system: EKVX NSCLC
UO-31 renal = test system: UO-31 renal
SN12C renal = test system: SN12C renal
SK-MEL-2 melanoma = test system: SK-MEL-2 melanoma
HS 578T breast = test system: HS 578T breast
BT-549 breast = test system: BT-549 breast
K-562 leukemia = test system: K-562 leukemia
LOX IMVI melanoma = test system: LOX IMVI melanoma
UACC-62 melanoma = test system: UACC-62 melanoma
NCI-H522 lung = test system: NCI-H522 lung
MALME-3M melanoma = test system: MALME-3M melanoma
SNB-19 CNS = test system: SNB-19 CNS

COc1cc(/C=N\O)cc(/C=N/O)c1O
TGI (SW-620 colon): > 100 µM | TGI (HL-60(TB) leukemia): > 100 µM | TGI (SK-MEL-28 melanoma): > 100 µM | TGI (CCRF-CEM leukemia): 25.1 µM | TGI (A549 NSCLC): > 100 µM | TGI (HOP-62 NSCLC): > 100 µM | TGI (HCT-15 colon): > 100 µM | TGI (MDA-N): > 100 µM | TGI (CAKI-1 renal): > 100 µM | TGI (HOP-92 NSCLC): 79.5 µM | TGI (SK-OV-3 ovarian): 90.9 µM | TGI (OVCAR-4 ovarian): > 100 µM | TGI (SR leukemia): 90.2 µM | TGI (RXF 393 renal): 60.3 µM | TGI (U251 CNS): > 100 µM | TGI (NCI-H23 lung): > 100 µM | TGI (DU-145 prostate): > 100 µM | TGI (MCF7 breast): > 100 µM | TGI (T-47D breast): > 100 µM | TGI (M14 melanoma): 54.7 µM | TGI (SNB-75 CNS): > 100 µM | TGI (SF-268 CNS): > 100 µM | TGI (RPMI-8226 leukemia): 32.4 µM | TGI (PC-3 prostate): > 100 µM | TGI (OVCAR-5 ovarian): > 100 µM | TGI (UACC-257 melanoma): > 100 µM | TGI (HCT-116 colon): > 100 µM | TGI (IGROV1 ovarian): > 100 µM | TGI (MDA-MB-231 breast): > 100 µM | TGI (KM12 colon): > 100 µM | TGI (NCI-H226 lung): 63.8 µM | TGI (OVCAR-8 ovarian): > 100 µM | TGI (TK-10 renal): > 100 µM | TGI (ACHN renal): 81.9 µM | TGI (A498 renal): > 100 µM | TGI (SF-295 CNS): 76.5 µM | TGI (SK-MEL-5 melanoma): > 100 µM | TGI (NCI/ADR-RES ovarian): > 100 µM | TGI (HT29 colon): > 100 µM | TGI (OVCAR-3 ovarian): > 100 µM | TGI (NCI-H460 lung): > 100 µM | TGI (SF-539 CNS): 66.3 µM | TGI (MDA-MB-435): > 100 µM | TGI (MOLT-4 leukemia): 77 µM | TGI (COLO 205 colon): 49.2 µM | TGI (EKVX NSCLC): > 100 µM | TGI (UO-31 renal): > 100 µM | TGI (SN12C renal): > 100 µM | TGI (SK-MEL-2 melanoma): 62.7 µM | TGI (HS 578T breast): 51.4 µM | TGI (BT-549 breast): > 100 µM | TGI (K-562 leukemia): > 100 µM | TGI (LOX IMVI melanoma): > 100 µM | TGI (UACC-62 melanoma): > 100 µM | TGI (NCI-H522 lung): > 100 µM | TGI (MALME-3M melanoma): 97.6 µM | TGI (SNB-19 CNS): > 100 µM
